“And” between values parts separate entries of the source, which are not always exact repeats. Identical values can stand only once. Inconclusive results and toxic doses are left out. Rule for the calls: active = survival T/C of 150% or more; inactive = T/C below 125% in these data.
System: CD2F1 mice, L1210 leukemia ip, survival T/C
Test: NCI In Vivo Anticancer Drug Screen. Data for tumor model L1210 Leukemia (intraperitoneal) in CD2F1 (CDF1) mice
Conditions: higher = longer survival
In short: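 Implant tumor; dose compound or vehicle; measure endpoint in both groups; report treated divided by control.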

[1] = endpoint: mean survival time, dose: 50.0 mg/kg/injection, schedule: Q01DX009 (ip), vehicle: saline with Tween-80
[2] = endpoint: mean survival time, dose: 100.0 mg/kg/injection, schedule: Q04DX003 (ip), vehicle: saline with Tween-80
[3] = endpoint: mean survival time, dose: 12.5 mg/kg/injection, schedule: Q04DX002 (ip), vehicle: saline with Tween-80
[4] = endpoint: mean survival time, dose: 100.0 mg/kg/injection, schedule: Q01DX009 (ip), vehicle: saline with Tween-80
[5] = endpoint: mean survival time, dose: 200.0 mg/kg/injection, schedule: Q01DX009 (ip), vehicle: saline with Tween-80
[6] = endpoint: mean survival time, dose: 200.0 mg/kg/injection, schedule: Q04DX003 (ip), vehicle: saline with Tween-80
[7] = endpoint: mean survival time, dose: 400.0 mg/kg/injection, schedule: Q04DX003 (ip), vehicle: saline with Tween-80
[8] = endpoint: mean survival time, dose: 400.0 mg/kg/injection, schedule: Q01DX009 (ip), vehicle: saline with Tween-80
[9] = endpoint: mean survival time, dose: 100.0 mg/kg/injection, schedule: Q01DX009 (ip), vehicle: Klucel (hydroxypropylcellulose) (HPC)
[10] = endpoint: mean survival time, dose: 200.0 mg/kg/injection, schedule: Q01DX009 (ip), vehicle: Klucel (hydroxypropylcellulose) (HPC)

Measured: T/C

CC(C)C(=O)[O][Sn]([CH2]c1ccccc1)([CH2]c1ccccc1)[CH2]c1ccccc1
inactive: endpoint: mean survival time, dose: 25.0 mg/kg/injection, schedule: Q01DX009 (ip), vehicle: saline with Tween-80 90 % of control | endpoint: mean survival time, dose: 25.0 mg/kg/injection, schedule: Q04DX003 (ip), vehicle: saline with Tween-80 95 % of control | [1] 95 % of control | endpoint: mean survival time, dose: 50.0 mg/kg/injection, schedule: Q04DX003 (ip), vehicle: saline with Tween-80 90 % of control | [2] 87 % of control

C#CC[N+](CCO)(CCO)CCCCCCCCCCCCCCCCCC
inactive: [3] 101 % of control | endpoint: mean survival time, dose: 25.0 mg/kg/injection, schedule: Q04DX002 (ip), vehicle: saline with Tween-80 101 % of control | endpoint: mean survival time, dose: 50.0 mg/kg/injection, schedule: Q04DX002 (ip), vehicle: saline with Tween-80 101 % of control

O=C1c2ccccc2C(=O)N1Cc1ccc([N+](=O)[O-])cc1Cl
inactive: [1] 87 % of control | [4] 98 % of control | [5] 94 % of control

O=C1OC(=O)C2C3C=CC(C4C=CC43)C12 (stereo unspecified)
inactive: [1] 102 % of control | endpoint: mean survival time, dose: 100.0 mg/kg/injection, schedule: Q01DX001 (ip), vehicle: saline with Tween-80 101 % of control | [4] 102 % of control | endpoint: mean survival time, dose: 200.0 mg/kg/injection, schedule: Q01DX001 (ip), vehicle: saline with Tween-80 98 % of control | [5] 97 % of control

C=CCCCCCCCCC(=O)N(CCOC)CCOC
inactive: [2] 93 % of control | [6] 94 % of control | [7] 98 % of control

COc1ccc(OC)c(NC(=O)NCc2ccccc2Cl)c1
inactive: [4] 90 % of control | [5] 100 % of control | [8] 87 % of control

COC(=O)C(Cc1cnc[nH]1)NC(=O)c1ccccc1 (stereo unspecified)
inactive: [2] 103 % of control | [6] 104 % of control | [7] 97 % of control

Nc1cc(C(F)(F)F)ccc1[N+](=O)[O-]
inactive: [2] 100 % of control | [6] 100 % of control | [7] 104 % of control

O=[N+]([O-])c1ccc2c(c1)-c1[nH]c3ccccc3c1CS2
inactive: [9] 102 % of control | [10] 101 % of control

CCCCC(CSC#N)SC#N (stereo unspecified)
inactive: endpoint: mean survival time, dose: 6.25 mg/kg/injection, schedule: Q04DX002 (ip), vehicle: saline with Tween-80 92 % of control | [3] 88 % of control

CC1(C)CC(=O)C2=C(C1)OC1=C(C(=O)CC(C)(C)C1)C2c1ccccc1Cl
inactive: [2] 102 % of control | [6] 100 % of control | [7] 104 % of control

CC(=O)C(Cl)C(=O)c1c(C)[nH]n(-c2ccccc2)c1=O (stereo unspecified)
inactive: endpoint: median survival time, dose: 25.0 mg/kg/injection, schedule: Q01DX005 (ip), vehicle: Klucel (hydroxypropylcellulose) (HPC) 112 % of control | endpoint: median survival time, dose: 50.0 mg/kg/injection, schedule: Q01DX005 (ip), vehicle: Klucel (hydroxypropylcellulose) (HPC) 111 % of control | endpoint: median survival time, dose: 100.0 mg/kg/injection, schedule: Q01DX005 (ip), vehicle: Klucel (hydroxypropylcellulose) (HPC) 111 % of control

Cc1cc(C)c(NC(=O)c2cccc(Cl)c2)c(C)c1
inactive: [4] 104 % of control | [2] 94 % of control | [5] 98 % of control | [6] 96 % of control | [8] 105 % of control | [7] 88 % of control

CC(=O)N(Cc1ccncc1)N=O
inactive: endpoint: mean survival time, dose: 75.0 mg/kg/injection, schedule: Q01DX001 (ip), vehicle: water 110 % of control | endpoint: mean survival time, dose: 150.0 mg/kg/injection, schedule: Q01DX001 (ip), vehicle: water 114 % of control | endpoint: mean survival time, dose: 300.0 mg/kg/injection, schedule: Q01DX001 (ip), vehicle: water 116 % of control

OCC1OC(n2cnc3c(NO)ncnc32)C(O)C1O (stereo unspecified)
inactive: endpoint: mean survival time, dose: 12.5 mg/kg/injection, schedule: Q01DX009 (ip), vehicle: Klucel (hydroxypropylcellulose) (HPC) 87 % of control and 103 % of control | endpoint: mean survival time, dose: 25.0 mg/kg/injection, schedule: Q01DX009 (ip), vehicle: Klucel (hydroxypropylcellulose) (HPC) 88 % of control and 104 % of control | endpoint: mean survival time, dose: 50.0 mg/kg/injection, schedule: Q01DX009 (ip), vehicle: Klucel (hydroxypropylcellulose) (HPC) 92 % of control and 104 % of control | [9] 92 % of control and 104 % of control | [10] 92 % of control and 104 % of control | endpoint: mean survival time, dose: 400.0 mg/kg/injection, schedule: Q01DX009 (ip), vehicle: Klucel (hydroxypropylcellulose) (HPC) 95 % of control and 107 % of control

CN(C)c1n[nH]c(=S)s1
inactive: [2] 100 % of control | [6] 100 % of control | [7] 88 % of control

Source: PubChem BioAssay AID256 (DTP/NCI, 2004)
